We go through 17 substances from article PMC11345766, “Computational Design of Pore-Forming Peptides with Potent Antimicrobial and Anticancer Activities” (Journal of Medicinal Chemistry, 2024).

Where two headings read alike, the source gives them in different places. Ends that are not written are not given here.

The term IC50 denotes the point on the concentration scale where inhibition reaches its midpoint.

Data set [1] in a line: Calcein dye leakage assay from LUVs. In kind it is biochemical. The settings on record: for Calcein leakage (%) from LUVs at P:L 1:100 (mol/mol): pH 7.4; for Calcein leakage: even at a higher P:L ratio of 1:10. An excerpt: To verify the pore-forming mechanism of action of the designed AMPs, we performed a calcein leakage assay. […] These lipid vesicles were used as simple mimics of bacterial membranes.[58] At the lowest tested peptide-to-lipid (P:L) ratio of 1:100 (mol/mol), three mutants (LP18, LP26, and LP40) caused >90% leakage, which was higher than the leakage caused by LP1 (87%). […] At the same concentration, LP23 caused leakage equivalent to that caused by LP1. Other mutants had lower leakage activity. At a higher P:L ratio of 1:50, all the abovementioned mutants caused 100% leakage, equivalent to that caused by LP1.
Pore-forming activity was tested using a dye leakage assay measuring the leakage of self-quenching fluorescent dye calcein from POPC:POPG (1:1 mol/mol) LUVs. DiD was mixed with lipids (1:500 mol/mol), and lipid film was created by evaporating chloroform, followed by 4 h of desiccation. Dried lipid film was dissolved in calcein buffer (35 mM calcein, 25 mM NaH2PO4·H2O and Na2HPO4·7H2O (3:7 mol/mol), 20 mM NaCl, and 1 mM EDTA). After 10 freeze–thaw cycles, the sample was extruded 50 times through a 100 nm pore size polycarbonate membrane filter. Free calcein in solution was removed using a HiTrap Desalting column. The concentrations of LUVs and peptides were adjusted to 0.02 and 0.1 mM, respectively, in PBS (25 mM NaH2PO4·H2O and Na2HPO4·7H2O (3:7 mol/mol), 100 mM NaCl, and 1 mM EDTA). The investigated P/L ratio was from 1:100 to 1:10 (mol/mol). Fluorescence intensity was measured using a HORIBA Scientific Jobin Yvon FluoroLog-3 Modular Spectrofluorometer (USA). Excitation and emission wavelengths were set to 495 and 520 nm, respectively. Triton X-100 10% caused 100% leakage used for normalization.

The test system of the next data set is E. coli (TOP10). In words: Broth microdilution antimicrobial susceptibility assay. Type of data set: cell-based, Escherichia coli. From the text:
(§1) To test antimicrobial activity, all peptides were initially screened, in a broth microdilution assay, against Gram-negative Escherichia coli (TOP10) and Gram-positive Staphylococcus carnosus (CCM 4838T) Biosafety Level 1 (BSL-1) bacteria (Table 2). […] Four other mutants (LP3, LP26, LP36, and LP39) had higher activity than LP1 against E. coli, and two mutants (LP23 and LP32) had higher activity than LP1 against S. carnosus. Six mutants (LP29, LP30, LP31, LP33, LP40, and LP43) were not active against one or both bacteria, even at the highest concentration tested (50 μM).
(§2) Antimicrobial activity against E. coli TOP10 and S. carnosus CCM 4838T was tested using the broth microdilution assay. Bacteria were cultured in MHA Petri dish for 24 h, subcultured in an MHB test tube for 6 h at 37 °C, and diluted to 10^6 CFU/mL (OD600). […] Dilution series was prepared for concentrations 50 to 0.1 μM in a flat-bottom 96-well plate, inoculated with bacteria, and incubated for 24 h at 37 °C. Growth control wells were free from test compounds, and sterility control wells were free from bacteria. Bacterial MIC was determined as the lowest concentration of test compounds that inhibited visible growth of bacteria (i.e., no visible turbidity).
(Broth dilution looks for growth in wells or tubes with falling amounts of substance.)

The test system of the next data set is S. carnosus (CCM 4838T). In words: microbe, parasite or virus in culture. The settings on record: CCM 4838, 24 h; read-out: Antimicrobial activity (MIC) S. carnosus (CCM 4838T). In kind it is cell-based, Staphylococcus carnosus.
Source text: as §1, §2

Data set [2] relates to human red blood cells (HRBCs). The settings on record: read-out: Hemolysis toxicity (IC50); 1 h incubation. The protocol:
To investigate the toxicity for normal human cells, all peptides were first screened against human red blood cells (HRBCs) using a hemolysis assay (Table 2 and Figure S4).
Hemolysis toxicity was tested against HRBCs. Blood samples, collected from the university hospital, were centrifuged twice at 700 × g and once at 1000 × g for 8 min at 4 °C to obtain erythrocyte pellets. Supernatants were always discarded, and pellets were resuspended in PBS (the same as the antimicrobial susceptibility assay). The final RBC suspension was 0.5% (v/v). Dilution series was prepared for concentrations 50 to 0.1 μM in a V-bottom 96-well plate, followed by the addition of RBC suspension. […] After 1 h of incubation at 37 °C, the well plate was centrifuged at 1000 × g for 10 min at 4 °C. The supernatant, collected in a flat-bottom well plate, was measured for OD415 using Tecan Microplate Reader Infinite F500.

The procedure of data set [3]: (§3) Cytotoxicity against human immortalized keratinocytes HaCaT, human alveolar basal epithelial A549 (derived from adenocarcinoma), and murine macrophages RAW 264.7 was tested using MTT [3-(4,5-dimethylthiazol-2-yl)-2,5-diphenyltetrazolium bromide] assay. Cells were cultured in Dulbecco’s modified Eagle’s medium (DMEM) containing 4 mM glutamine for HaCaT, or 2 mM glutamine for A549 and RAW 264.7 cells, supplemented with 10% heat-inactivated fetal bovine serum (FBS) and antibiotics (0.1 mg/mL penicillin and streptomycin). Nonessential amino acids (NEAA) and sodium pyruvate (1 mM) were added for macrophages. Cell lines were grown in 25 and 75 cm^2 flasks at 37 °C in a humidified atmosphere with 5% CO2. Cells were suspended in DMEM, containing glutamine, NEAA, and sodium pyruvate (as described above), supplemented with 2% FBS, plated in 96-well plates at 4 × 10^4 cells/well, and incubated at 37 °C in a 5% CO2 atmosphere. After overnight incubation, the medium was replaced with fresh DMEM supplemented with peptides at different concentrations: 2, 4, 8, 16, 32, 64, and 128 μM. Negative controls were cells without peptides. After 24 h of peptide treatment at 37 °C in a 5% CO2 atmosphere, medium was replaced with Hank’s buffer (136 mM NaCl, 0.34 mM Na2HPO4, 0.44 mM KH2PO4, 5.4 mM KCl, 4.1 mM NaHCO3, supplemented with 5.5 mM D-glucose) containing 0.5 mg/mL MTT. Mitochondrial dehydrogenases converted soluble yellow dye MTT to insoluble purple formazan. After 4 h of incubation, acidified isopropanol was added to dissolve formazan crystals and measured for OD570 using Tecan microplate reader Infinite M200 (Salzburg, Austria).

The procedure of data set [4]: as §3
The source holds these as a separate data set.

Regarding “KKKKLKKILKKLIQLINQLDNQLQDIKQNK-NH2 [LP2]”, in data set [1], the “Calcein leakage (%) from LUVs at P:L 1:100 (mol/mol)” value is recorded as 24.2 ± 2.6%. The MIC in the data set on E. coli (TOP10) (TOP10, 24 h) was 6.3 µM; with S. carnosus (CCM 4838T) it was 1.6 µM. In addition, the IC50 in data set [2] was > 50 µM.
In the same order, the values of “KKKKLKKILKKLFSFISSLDSSLSDIKSSK-NH2 [LP36]” are 71.5 ± 7.4%, 0.4 µM, 0.8 µM and > 50 µM.
Regarding “RRRRLKKILKKLFQFINQLDNQLQDIRQNR-NH2 [LP39]”, the “Calcein leakage (%) from LUVs at P:L 1:100 (mol/mol)” value in data set [1] is reported as 65.5 ± 4.2%. For the same substance, the MIC with E. coli (TOP10) (24 h, MHB) turned out to be 0.4 µM; in the data set with S. carnosus (CCM 4838T), 0.8 µM.
In the case of “KKKKLRRILRRLFQFINQLDNQLQDIKQNK-NH2 [LP38]”, in data set [1], the “Calcein leakage (%) from LUVs at P:L 1:100 (mol/mol)” value is listed as 76.0 ± 3.3%. Also, the MIC is given as 0.2 µM with E. coli (TOP10) (24 h, MHB) and 0.4 µM with S. carnosus (CCM 4838T).
On the same counts, the results for “KKKKLKKILKKLWQWINQLDNQLQDIKQNK-NH2 [LP3]” are 29.6 ± 1.2%, 0.4 µM and 0.8 µM.
As for “H-KKKKLKKILKKLFQFINQLDNQLQDIKQNK-OH [LP22]”, the “Calcein leakage (%) from LUVs at P:L 1:100 (mol/mol)” value in data set [1] is listed as 68.0 ± 1.7%. The MIC turned out to be 0.2 µM in the data set on E. coli (TOP10) (24 h, MHB) and 0.4 µM in the data set on S. carnosus (CCM 4838T).
On to “KNQNLDDILNQLFQFINQLKNQLQKIKKKK-NH2 [LP43]”, for which the “Calcein leakage (%) from LUVs at P:L 1:100 (mol/mol)” value in data set [1] is 64.2 ± 4.6%. In addition, the MIC was > 50 µM against E. coli (TOP10) (TOP10, 24 h) and 0.8 µM in the data set on S. carnosus (CCM 4838T). For the same substance, the half-maximal inhibitory concentration (IC50) in data set [2] is > 50 µM.
In the case of “KKKKLKKILKKLFNFINNLDNNLNDIKNNK-NH2 [LP37]”, the “Calcein leakage (%) from LUVs at P:L 1:100 (mol/mol)” value in data set [1] was 70.3 ± 1.7%. For the same substance, the MIC against E. coli (TOP10) (TOP10, 24 h) amounted to 0.2 µM; in the data set on S. carnosus (CCM 4838T), 0.4 µM. Moreover, the IC50 in data set [2] is > 50 µM.
Turning to “H-KKKKLKKILKKLFQFINQLDNQLQDFKQNK-OH [LP26]”, the “Calcein leakage (%) from LUVs at P:L 1:100 (mol/mol)” value in data set [1] is listed as 91.6 ± 2.8%. The MIC was 0.4 µM in the data set on E. coli (TOP10) (24 h, MHB) and 0.8 µM in the data set on S. carnosus (CCM 4838T).
In the same order, the values of “KKKKLKKILKKLFQFIDQLINDLQNIKKKK-NH2 [LP20]” are 38.6 ± 3.5%, 1.6 µM and 1.6 µM.
On to “KKKKLKKILKKLFQFINQLENQLQEIKQNK-NH2 [LP8]”, for which, in data set [1], the “Calcein leakage (%) from LUVs at P:L 1:100 (mol/mol)” value was 29.2 ± 4.9%. For the same substance, the MIC is listed as 0.8 µM in the data set with E. coli (TOP10) (24 h, MHB) and 0.8 µM in the data set with S. carnosus (CCM 4838T).
As to “KKKKVKKVVKKVFQFVNQVDNQVQDVKQNK-NH2 [LP31]”, the “Calcein leakage (%) from LUVs at P:L 1:100 (mol/mol)” value in data set [1] was 0%. The Calcein leakage in data set [1] is recorded as ≤ 20%. Besides, the MIC was > 50 µM against E. coli (TOP10) (TOP10, 24 h) and > 50 µM with S. carnosus (CCM 4838T). The half-inhibitory concentration (IC50) is > 50 µM in data set [2] and > 128 µM in data set [3].
Turning to “Ac-KKKKLKKILKKLFQFINQLDNQLQDIKQNK-NH2 [LP23]”, in data set [1], the “Calcein leakage (%) from LUVs at P:L 1:100 (mol/mol)” value is recorded as 83.3 ± 5.4%. For the same substance, the MIC came to 6.3 µM in the data set with E. coli (TOP10) (TOP10, 24 h) and 0.4 µM in the data set with S. carnosus (CCM 4838T). Also, the IC50 in data set [2] was > 50 µM.
For the substance “KKKKAKKAAKKAFQFANQADNQAQDAKQNK-NH2 [LP29]”, in data set [1], the “Calcein leakage (%) from LUVs at P:L 1:100 (mol/mol)” value was 0%. Besides, the Calcein leakage result in data set [1] is “did not cause any leakage”. Also, the MIC in the data set on E. coli (TOP10) (TOP10, 24 h) is > 50 µM; in the data set with S. carnosus (CCM 4838T) it was > 50 µM. Also, the IC50 in data set [2] was > 50 µM.
Turning to “KKKKMKKMMKKMFQFMNQMDNQMQDMKQNK-NH2 [LP30]”, the “Calcein leakage (%) from LUVs at P:L 1:100 (mol/mol)” value in data set [1] is 21.9 ± 2.5%. In addition, the MIC is given as > 50 µM against E. coli (TOP10) (TOP10, 24 h) and 12.5 µM in the data set with S. carnosus (CCM 4838T). The IC50 in data set [2] is > 50 µM.
On to “KKKKLKKLLKKLFQFLNQLDNQLQDLKQNK-NH2 [LP32]”, for which, in data set [1], the “Calcein leakage (%) from LUVs at P:L 1:100 (mol/mol)” value is on record as 56.3 ± 3.3%. The MIC with E. coli (TOP10) (TOP10, 24 h) was found to be 1.6 µM; with S. carnosus (CCM 4838T), 0.4 µM. For the same substance, the results for the IC50 in data set [2] and in data set [4] were > 50 µM and < 2 µM, respectively.
Consider “KKKKLKKILKKLFTFITTLDTTLTDIKTTK-NH2 [LP34]”, for which the “Calcein leakage (%) from LUVs at P:L 1:100 (mol/mol)” value in data set [1] was 79.3 ± 2.4%. For the same substance, the MIC was 0.8 µM with E. coli (TOP10) (TOP10, 24 h) and 0.8 µM in the data set with S. carnosus (CCM 4838T). In addition, the IC50 in data set [2] is > 50 µM.
